Here are results for 20 compounds from ChEMBL document CHEMBL1128064, “Discovery of L-740,515, a potent thienopyridine cysLT1 receptor (LTD4 receptor) antagonist” (Bioorg Med Chem Lett, 1995).

In series [1] the target is Cysteinyl leukotriene receptor 1 (Cavia porcellus). The series is described as follows: Inhibition of binding of [3H]LTD4 to guinea pig lung membrane.
Series [2] addresses T1, Cysteinyl leukotriene receptor 1 (Homo sapiens, UniProt Q9Y271).
T1 sequence (Q9Y271 whole entry): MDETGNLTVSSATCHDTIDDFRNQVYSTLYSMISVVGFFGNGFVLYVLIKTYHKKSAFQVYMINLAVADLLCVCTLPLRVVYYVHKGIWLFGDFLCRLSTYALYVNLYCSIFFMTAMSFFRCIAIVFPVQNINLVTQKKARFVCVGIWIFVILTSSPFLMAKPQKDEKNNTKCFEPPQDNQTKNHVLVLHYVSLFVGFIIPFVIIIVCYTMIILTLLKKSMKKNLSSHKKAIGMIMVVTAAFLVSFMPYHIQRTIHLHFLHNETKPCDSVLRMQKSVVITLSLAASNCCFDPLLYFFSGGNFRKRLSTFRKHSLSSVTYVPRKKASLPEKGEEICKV
The series is described as follows: Inhibition of binding of [ H]-LTD4 to DMSO differentiated U937 cell membranes. Further details: species or system U-937.

The nature of series [3]: Clearance was estimated in two squirrel monkeys after iv administration at 5 mg/kg. In kind it is ADME, organism-based. Further details: dose 5 mg/kg, route intravenous. The note with it: in vivo.
Series [4] can be described thus: Terminal half life of the compound. The format is ADME.
Series [5] is described as follows: Bioavailability in squirrel monkey (dose 5 mg/kg). In kind it is ADME, organism-based, Saimiri sciureus. Conditions: in vivo.
For series [6], the target named is Cysteinyl leukotriene receptor 1 (Cavia porcellus). The series is described as follows: Inhibition of binding of [3H]LTD4 to guinea pig lung membrane supplemented with 0.05% human serum albumin(HSA).
Series [7] is described as follows: Compound was tested on PMN membranes using LTD4 binding assays. The format is functional, Homo sapiens.
A short description of series [8]: Compound was tested on dU937 cell membranes using LTC4 binding assays. In kind it is functional, Homo sapiens.

Usually IC50 stands for the point on the concentration scale where inhibition reaches its midpoint. By clearance is commonly meant the rate of elimination divided by the concentration. The term half-life denotes how long it takes for the measured level to halve. As a reminder, the bioavailability is dose-corrected exposure relative to a reference, in per cent. Turning to `O=C(O)CC1(CS[C@H](CCc2ccccc2C(O)(C(F)(F)F)C(F)(F)F)c2cccc(/C=C/c3ccc4sc(Cl)c(Cl)c4n3)c2)CC1`, the IC50 was 4.12 nM in series [1], 6.42 nM in series [2] and 1.21 nM in series [6]. Besides, the clearance in series [3] was 0.9 mL/min/kg. Further, the half-life in series [4] is 11 h. Besides, the bioavailability in series [5] was determined as 2%.

On to `CC(C)(O)c1ccc(CC[C@@H](SCC2(CC(=O)O)CC2)c2cccc(/C=C/c3ccc4sc(Cl)c(Cl)c4n3)c2)cc1`, for which the IC50 amounted to 0.56 nM in series [1], 0.38 nM in series [2] and 0.2 nM in series [6]. For the same compound, the clearance in series [3] is 6.6 mL/min/kg. The compound also returned a bioavailability in series [5] of 35%.

On to `O=C(O)CC1(CS[C@H](CCc2cccc(C3(O)CCC3)c2)c2cccc(/C=C/c3ccc4sc(Cl)c(Cl)c4n3)c2)CC1`, for which the figures for the IC50 in series [1], in series [2] and in series [6] were 0.44 nM, 0.47 nM and 0.24 nM, respectively. Besides, the clearance in series [3] is 2.6 mL/min/kg. In series [5], this compound gave a bioavailability of 13%.

On to `CC(C)(O)c1ccccc1CC[C@@H](SCC1(CC(=O)O)CC1)c1cccc(COc2ccc3sc(Cl)c(Cl)c3n2)c1`, for which the half-inhibitory concentration (IC50) in series [1], in series [2] and in series [6] was above 150 nM throughout.

For `CC(C)(O)c1ccccc1CC[C@@H](SCC1(CC(=O)O)CC1)c1cccc(/C=C/c2ccc3sc(F)c(F)c3n2)c1`, in series [3], the clearance was 1.61 mL/min/kg. In addition, the half-life in series [4] is 2.5 h. For the same compound, the bioavailability in series [5] came out at 25%.

Consider `CC(C)(O)c1ccccc1CC[C@@H](SCC1(CC(=O)O)CC1)c1cccc(/C=C/c2ccc3sc(Cl)cc3n2)c1`, for which the clearance in series [3] is 1.2 mL/min/kg. In addition, the bioavailability in series [5] is 31%.

`O=C(O)CC1(CS[C@H](CCc2ccccc2C2(O)CCC2)c2cccc(/C=C/c3ccc4sc(Cl)c(Cl)c4n3)c2)CC1`: the half-maximal inhibitory concentration (IC50) in series [1] is 0.74 nM; in series [2] it was 1.05 nM; in series [6], 0.34 nM. The clearance in series [3] was 1 mL/min/kg. In series [5], this compound displayed a bioavailability of 22%.

Regarding `O=C(O)CC1(CS[C@H](CCc2ccc(C3(O)CCC3)cc2)c2cccc(/C=C/c3ccc4sc(Cl)c(Cl)c4n3)c2)CC1`, the IC50 was determined as 0.58 nM in series [1], 0.65 nM in series [2] and 0.29 nM in series [6]. In series [3], the clearance was 4.7 mL/min/kg. The same compound gave a half-life in series [4] of 2 h. Further, the bioavailability in series [5] worked out at 15%.

Take `O=C(O)CC1(CS[C@H](CCc2ccc(Br)cc2)c2cccc(/C=C/c3ccc4sc(Cl)c(Cl)c4n3)c2)CC1`: the 50% inhibitory concentration (IC50) is 1.95 nM in series [1], 4.7 nM in series [2] and 1.03 nM in series [6]. The clearance in series [3] was 1.6 mL/min/kg. In series [4], the half-life is 5.1 h. Besides, the bioavailability in series [5] amounted to 3%.

With `CC(C)(O)c1ccccc1CC[C@@H](SCC1(CC(=O)O)CC1)c1cccc(C2CC2c2ccc3sc(Cl)c(Cl)c3n2)c1` (some centres not stated), the IC50 is 10.9 nM in series [1], 15.7 nM in series [2] and 9.12 nM in series [6].

With `CC(C)(O)c1ccccc1CC[C@@H](SCC1(CC(=O)O)CC1)c1cccc(/C=C/c2ccc3scc(Cl)c3n2)c1`, the values for the IC50 in series [1], in series [2] and in series [6] were 0.54 nM, 1.91 nM and 1.58 nM, respectively. Further, the clearance in series [3] was 0.39 mL/min/kg. The compound also showed a bioavailability in series [5] of 13%.

Turning to `O=C(O)CC1(CS[C@H](CCc2ccc(C(F)(F)F)cc2)c2cccc(/C=C/c3ccc4sc(Cl)c(Cl)c4n3)c2)CC1`, the 50% inhibitory concentration (IC50) in series [1] came to 3.84 nM; in series [2] it was 8.67 nM; in series [6], 1.43 nM. Also, the clearance in series [3] was 1.4 mL/min/kg. The bioavailability in series [5] was 4%.

In the case of `O=C(O)CC1(CS[C@H](CCc2ccccc2Br)c2cccc(/C=C/c3ccc4sc(Cl)c(Cl)c4n3)c2)CC1`, the concentration for half-maximal inhibition (IC50) in series [1] was determined as 2.6 nM; in series [2] it was 2.43 nM; in series [6], 1.93 nM. The clearance in series [3] is 0.46 mL/min/kg. Besides, the half-life in series [4] was 8.8 h. Also, the bioavailability in series [5] was 3%.

In the case of `CC(C)(O)c1ccccc1CC[C@@H](SCC1(CC(=O)O)CC1)c1cccc(OCc2ccc3sc(Cl)c(Cl)c3n2)c1`, the IC50 is 0.42 nM in series [1], 2.01 nM in series [2] and 2.2 nM in series [6].

On to `O=C(O)CC1(CS[C@H](CCc2ccccc2CO)c2cccc(/C=C/c3ccc4sc(Cl)c(Cl)c4n3)c2)CC1`, for which the half-inhibitory concentration (IC50) in series [1] turned out to be 0.48 nM; in series [2], 0.72 nM; in series [6] it was 0.48 nM. Also, the clearance in series [3] was 3.5 mL/min/kg.

Turning to `CC(C)(O)c1ccccc1CC[C@@H](SCC1(CC(=O)O)CC1)c1cccc(/C=C/c2ccc3sccc3n2)c1`, the figures for the IC50 in series [1], in series [2] and in series [6] were 1.31 nM, 8.49 nM and 20.4 nM, respectively.

As for `O=C(O)CC1(CS[C@H](CCc2ccccc2)c2cccc(/C=C/c3ccc4sc(Cl)c(Cl)c4n3)c2)CC1`, the figures for the IC50 in series [1], in series [2] and in series [6] were 0.34 nM, 1.63 nM and 0.37 nM, respectively. Also, the clearance in series [3] was 1.8 mL/min/kg. In series [4], this compound had a half-life of 4 h. The compound further yielded a bioavailability in series [5] of 13%.

With `CC(C)(O)c1ccccc1CC[C@@H](SCC1(CC(=O)O)CC1)c1cccc(/C=C/c2ccc3sc(Cl)c(Cl)c3n2)c1`, the IC50 was above 3000 nM in series [7]; 0.89 nM in series [1]; 0.55 nM in series [2]; above 46000 nM in series [8]; 0.34 nM in series [6]. The clearance in series [3] is 0.57 mL/min/kg. Further, the half-life in series [4] is 4.2 h. In series [5], this compound returned a bioavailability of 29%.

In the case of `O=C(O)CC1(CS[C@H](CCc2ccccc2C(F)(F)F)c2cccc(/C=C/c3ccc4sc(Cl)c(Cl)c4n3)c2)CC1`, in series [3], the clearance was 0.4 mL/min/kg. This compound gave a half-life in series [4] of 6.1 h. The compound also displayed a bioavailability in series [5] of 1%.

Consider `O=C(O)CC1(CS[C@H](CCc2ccc(F)cc2)c2cccc(/C=C/c3ccc4sc(Cl)c(Cl)c4n3)c2)CC1`, for which the figures for the IC50 in series [1], in series [2] and in series [6] were 1.09 nM, 2.16 nM and 0.65 nM, respectively. Also, the clearance in series [3] was 1.8 mL/min/kg. The same compound came in with a bioavailability in series [5] of 5%.
